In series [1] the test system is human hepatocytes. Kind of series: Metabolite identification in human hepatocytes. To be noted: for relative proportion of compounds identified: 5-MeO-DMT 10 μM, up to 120 minutes. The series is classed as in vitro ADME. As to the method:
All samples were stored at −80° C. (nominal) prior to analysis.
Appropriate blank and control samples were also analysed. […] (nominal).

The subject of series [2] is human hepatocytes. Description: Metabolic stability in Hμrel human hepatocyte co-culture. It counts as in vitro ADME. As to conditions: for relative LC/MS peak area: 0 h. As to the method: The incubations were performed using 1 and 10 μM initial concentrations and sampling at 0, 1, 2, 4, 8, 24, 48, and 72 hours (h) time points. The samples were analysed using UPLC/QE-orbitrap-MS.

Another series relates to human plasma protein. Kind of series: Binding to human plasma protein (unbound fraction). It counts as in vitro ADME. As to the method: Binding to human plasma protein was determined. Reported are the unbound fraction (fu) for three replicates as well as the mean unbound fraction, the standard deviation and the mean % recovery (Table 8).
Series [3] is described as follows: Pharmacokinetics of 5-MeO-DMT and bufotenine after inhalation. The series is classed as in vivo, human.

Take 5-Methoxyindole acetic acid [5-MIAA]: the “presence in subsequent assays” value in the series with human hepatocytes [1] is listed as “predominant metabolite”. Further, the “disappearance with stromal cell controls” value with human hepatocytes [2] is “no disappearance”. Also, the “in vitro intrinsic clearance” value with human hepatocytes [2] (1 μM, human hepatocytes) is on record as 0.15 μl/min/million cells. Besides, in the series on human hepatocytes [2] (72 h, hepatocytes, 1 and 10 μM), the remaining abundance is 75-82%. In the series with human plasma protein, the “plasma binding (mean fraction unbound)” value was about 50%. The “time for removal from circulation by renal clearance” value with human plasma protein (from glomerular filtration rate 90-120 ml/min) fell in the range of 1 to 2 h.

Regarding `COc1ccc2[nH]cc(CC[N+](C)(C)[O-])c2c1` [5-MeO-DMT-N-oxide], the “relative proportion of compounds identified” value (from here on “relative proportion”) with human hepatocytes [1] is recorded as 1%.

In the case of `COc1ccc2[nH]cc(CCO)c2c1` [5-methoxytryptophol, 5-Methoxyindole-3-ethanol], in the series on human hepatocytes [1], the “presence in subsequent assays” value is on record as “repeatedly failed to detect”. In addition, in the series on human hepatocytes [1], the “relative proportion” value was 25%. For the same compound, the “disappearance with stromal cell controls” value in the series on human hepatocytes [2] is “no disappearance”. The “relative LC/MS peak area” value in the series on human hepatocytes [2] (1 μM, hepatocytes) is 100%; in the series on human hepatocytes [2] (1 μM, stromal cells), 100%; in the series on human hepatocytes [2] (10 μM, hepatocytes), 100%; in the series on human hepatocytes [2] (10 μM, stromal cells), 100%.

On to `CN(C)CCc1c[nH]c2ccc(O[C@@H]3O[C@H](C(=O)O)[C@@H](O)[C@H](O)[C@H]3O)cc12` [Bufotenine glucuronide], for which, in the series with human hepatocytes [1], the “detection in the hepatocyte assay” value is “not detected”.

For the compound `CN(C)CCc1c[nH]c2ccc(O)cc12` [bufotenine, Bufotenine], in the series with human hepatocytes [1], the “relative proportion” value was found to be 5%. For the same compound, the “detection in human serum” value in series [3] (15 minutes after administration of 5-MeO-DMT) is on record as “In no case is it detected”. The bufotenine blood concentration in series [3] (from 15 min after 5-MeO-DMT inhalation, LLOQ) is under 25 pg/mL.

(Values after patent publication US20250170099A1, “TREATMENT OF POSTNATAL DEPRESSION” (GH RESEARCH IRELAND LIMITED, priority 2022, published 2025).)
